A short description of this assay: Inhibition of gamma secretase assessed as reduction in Abeta42 production.

Structures are written as SMILES.

For `Cc1cn(-c2ccc(Nc3ncn(Cc4cccc(Cl)c4)n3)cc2C#N)cn1`, the 50% inhibitory concentration (IC50) is 220 nM. For `COc1cc(/C=C/c2nc(-c3ccccc3)cn2C)ccc1-n1cnc(C)c1` the value was 18 nM; for `CC(C)CC(C(=O)O)c1cc(-c2ccc(C(F)(F)F)cc2)cc(N(C)c2cc(F)cc(F)c2)c1` (stereo not given), 450 nM; for `CC(C)CCN1CC(c2cc(-c3ccc(C(F)(F)F)cc3)cc(C(CC(C)C)C(=O)O)c2)CCC1C(F)(F)F` (stereo not given), 370 nM.

With `N#Cc1cc(Nc2nc3n(n2)CCCC3c2ccc(F)cc2)ccc1-n1cnc(Cl)c1` (stereo not given), the half-maximal inhibitory concentration (IC50) is 110 nM. For `COc1cc(Nc2nc3n(n2)CCCC[C@@H]3c2ccc(OCC(F)(F)F)cc2)ccc1-n1cnc(Cl)c1` the value was 10 nM. Next, `COc1cc(/C=C/c2nc3n(n2)CCC[C@H]3c2ccccc2C(F)(F)F)ccc1-n1cnc(C)c1`: 11 nM.

As for `CC(C)CC[C@H](c1ccc(C(F)(F)F)cc1)N1CC[C@@H](CC(=O)O)C(F)(F)[C@H]1c1ccc(C(F)(F)F)cc1`, the 50% inhibitory concentration (IC50) came to 710 nM.

Take `CC(C)CC(C(=O)O)c1cc(/C=C/c2cc(F)cc(F)c2)cc(-c2ccc(C(F)(F)F)cc2)c1` (stereo not given): the half-maximal inhibitory concentration (IC50) was determined as 450 nM. Turning to `COc1cc(/C=C/c2nc(-c3ccccc3)c[nH]2)ccc1-n1cnc(C)c1`, the half-inhibitory concentration (IC50) came out at 76 nM. On to `COc1cc(-c2cn(C(F)(F)c3ccc(C(F)(F)F)cc3)nn2)ccc1-n1cnc(C)c1`, for which the half-maximal inhibitory concentration (IC50) was 2240 nM.

On to `CC(C)CC(C(=O)O)c1cc(Oc2cc(F)cc(F)c2)cc(-c2ccc(C(F)(F)F)cc2)c1` (stereo not given), for which the concentration for half-maximal inhibition (IC50) was found to be 770 nM.

With `COc1cc(NC(=O)C(C)c2cccc(F)n2)ccc1-c1ccnc(C)c1` (stereo not given), the IC50 worked out at 557 nM. For `COc1cc(/C=C/c2nc3n(n2)CCC[C@@H]3c2ccc(F)cc2)ccc1-n1cnc(C)c1`, the half-maximal inhibitory concentration (IC50) worked out at 14 nM. For `COc1cc(/C=C2\CC[C@H]3CCC[C@@H](c4cc(F)c(F)c(F)c4)N3C2=O)ccc1-n1cnc(C)c1` the value was 33 nM; for `COc1cc(Nc2nc3c(s2)CCCC3c2ccccc2)ccc1-n1cnc(C)c1` (stereo not given), 40 nM. Consider `CC(C)CCN(Cc1ccc(C(F)(F)F)cc1)Cc1cc(-c2ccc(C(F)(F)F)cc2)cc(C(CC(C)C)C(=O)O)c1` (stereo not given), for which the IC50 is 220 nM. Regarding `COc1cc(/C=C2\OC(C)(C)CN([C@@H](CO)c3ccc(F)cc3)C2=O)ccc1-n1cnc(C)c1`, the IC50 amounted to 16 nM.

On to `COc1cc(/C=C2\CCCN(Cc3cccc(F)c3)C2=O)ccc1-n1cnc(C)c1`, for which the half-inhibitory concentration (IC50) amounted to 200 nM. `COc1cc(-c2cn(CC(=O)N(CC(F)(F)F)c3ccc(F)c(Cl)c3)nn2)ccc1-n1cnc(C)c1`: the IC50 came out at 84 nM. With `CC(C)CC(C(=O)O)c1cc(-c2ccc(C(F)(F)F)cc2)cc(N2CCC(C(F)(F)F)CC2)c1` (stereo not given), the IC50 stood at 440 nM. Next, `CC(C)CC(C(=O)O)c1cc(CCc2cc(F)cc(F)c2)cc(-c2ccc(C(F)(F)F)cc2)c1` (stereo not given): 410 nM; `COc1cc(C(=O)c2c(OC)cnn(C(C)c3ccccc3)c2=O)ccc1-n1cnc(C)c1` (stereo not given): 2500 nM. In the case of `COc1cc(NC(=O)C(C)N2CCc3ccc(Br)cc3C2)ccc1-c1ccnc(C)c1` (stereo not given), the IC50 turned out to be 181 nM. `COc1cc(Nc2ccnn(Cc3ccc(F)cc3)c2=O)ccc1-n1cnc(C)c1`: the 50% inhibitory concentration (IC50) was 345 nM.

In the case of `COc1cc(Nc2ncc3c(n2)C(c2ccccc2)CCC3)ccc1-n1cnc(C)c1` (stereo not given), the IC50 stood at 840 nM. Take `CCCCCCCCCCn1c2ccc(Cl)cc2c2ccc(C(C)C(=O)O)cc21` (stereo not given): the IC50 was 2900 nM.

Take `COc1cc(Nc2nc3c(c(COC4CCCC4)n2)COCC3)ccc1-n1cnc(C)c1`: the IC50 was determined as 22 nM. Consider `CC(C(=O)O)c1ccc(-c2ccccc2)c(F)c1` (racemic) [FLURBIPROFEN], for which the half-maximal inhibitory concentration (IC50) was 300000 nM. On to `CC(C)CCN(Cc1cc(-c2ccc(C(F)(F)F)cc2)cc(C(CC(C)C)C(=O)O)c1)c1ccc(C(F)(F)F)cc1` (stereo not given), for which the IC50 was determined as 250 nM. Next, `COc1cc(Nc2nc3n(n2)CC[C@@](C)(O)C[C@@H]3c2ccc(F)cc2)ccc1-n1cnc(Cl)c1`: 2 nM.

For `COc1cc(Nc2nc(C)cc(Nc3ccc(Cl)cc3)n2)ccc1-n1cnc(C)c1`, the IC50 was determined as 70 nM.

Regarding `COc1cc(Nc2ncc3c(n2)C(c2ccccc2)CCC3)ccc1-c1cnn(C)c1` (stereo not given), the IC50 worked out at 240 nM. Next, `COCc1cc(F)ccc1[C@H]1CCCn2nc(/C=C/c3ccc(-n4cnc(C)c4)c(OC)c3)nc21`: 12 nM; `CC(C)CCN1C(c2cc(-c3ccc(C(F)(F)F)cc3)cc(C(CC(C)C)C(=O)O)c2)CCCC1C(F)(F)F` (stereo not given): 110 nM.

Consider `COc1cc(Nc2cccc3c2nc(-c2ccc(F)cc2)n3C)ccc1-n1cnc(C)c1`, for which the IC50 was determined as 21 nM. For `COc1nc(-c2nc3n(n2)CCC[C@@H]3c2cc(N(CC3CC3)CC3CC3)ccc2Cl)ccc1-n1cnc(C)c1` the value was 4 nM; for `COc1cc(/C=C/c2nc3n(n2)CCC[C@@H]3c2ccc(C(F)(F)F)cc2)ccc1-n1cnc(C)c1`, 31 nM. For `COc1cc(NC(=O)NC(C)Cc2ccc(F)cc2)ccc1-c1ccnc(C)c1` (stereo not given) the value was 131 nM; for `COc1cc(NC(=O)Nc2cc(Cl)ccc2C)ccc1-c1ccnc(C)c1`, 670 nM; for `CC(C)CC(C(=O)O)c1cc(-c2ccc(C(F)(F)F)cc2)cc(C2CCC(C(F)(F)F)N(c3cc(F)cc(C(F)(F)F)c3)C2)c1` (stereo not given), 310 nM. Next, `COc1cc(Nc2nc3n(n2)CCCC[C@H]3c2ccc(OCC(F)(F)F)cc2)ccc1-n1cnc(Cl)c1`: 5 nM. In the case of `COc1nc(/C=C/c2nc3n(n2)CCC[C@H]3c2ccccc2C(F)(F)F)ccc1-n1cnc(C)c1` [E-2212], the half-inhibitory concentration (IC50) is 17 nM. Regarding `COc1ccccc1NC(=O)Nc1ccc(-c2ccnc(C)c2)c(OC)c1`, the IC50 was 3300 nM.

In the case of `COc1nc(/C=C/c2nc3n(n2)CCC[C@@H]3c2cc(F)c(F)c(F)c2)ccc1-n1cnc(C)c1`, the IC50 was determined as 22 nM.

As to `COc1cc(Nc2ncn(Cc3cccc(Cl)c3)n2)ccc1-n1cnc(C)c1`, the IC50 stood at 130 nM. For `COc1cc(/C=C2\CCCn3c(-c4ccc(F)cc4)cnc32)ccc1-n1cnc(C)c1` the value was 170 nM; for `COc1cc(/C=C/c2nc3n(n2)CCC[C@@H]3c2cccc(F)c2)ccc1-n1cnc(C)c1`, 28 nM; for `COc1cc(-c2cn([C@@H]3CCc4c(C)cc(C)cc4N(CC(F)(F)F)C3=O)nn2)ccc1-n1cnc(C)c1`, 21 nM.

In the case of `COc1cc(-c2cn(C3CCc4c(F)cccc4N(CC(F)(F)F)C3=O)nn2)ccc1C#Cc1ccnc(C)c1` (stereo not given), the IC50 worked out at 83 nM. Next, `CC(C)CC(C(=O)O)c1cc(-c2ccc(C(F)(F)F)cc2)cc(C2CCCC(C(F)(F)F)N2C)c1` (stereo not given): 420 nM. Next, `COc1cc(-c2cn(C3CCc4c(F)cccc4N(CC(F)(F)F)C3=O)nn2)ccc1Oc1cccnc1` (stereo not given): 537 nM; `COc1cc(C2CN(C(C)=O)CC3(CCCN(C(C)c4ccc(F)cc4)C3=O)C2)ccc1-n1cnc(C)c1` (stereo not given): above 200 nM. Regarding `COCCN(Cc1cccc2ccccc12)C(=O)/C=C/c1ccc(-n2cnc(C)c2)c(OC)c1`, the half-maximal inhibitory concentration (IC50) was 60 nM. Take `COc1cc(/C=C/c2nnc(C(C)c3ccc(F)cc3)[nH]2)ccc1-n1cnc(C)c1` (stereo not given): the IC50 came out at 33 nM. For `COc1cc(/C=C/c2nc3n(n2)CCC[C@@H]3c2cc(F)c(F)c(F)c2)ccc1-n1cnc(C)c1` the value was 14 nM. For `COc1cc(-c2cn(C3CCc4ccccc4N(CC(F)(F)F)C3=O)nn2)ccc1-c1ccncc1` (stereo not given), the IC50 was 80 nM. For `CC(C)CC(C(=O)O)c1cc(-c2ccc(C(F)(F)F)cc2)cc(C2CCCC(C(F)(F)F)N2Cc2ccc(C(F)(F)F)cc2)c1` (stereo not given) the value was 310 nM. As to `CC(C)CC(C(=O)O)c1cc(CCc2ccc(-c3ccccc3)cc2)cc(-c2ccc(Cl)c(C(F)(F)F)c2)c1` (stereo not given), the IC50 was 210 nM.

On to `COc1nc(-c2nc3n(n2)CCC[C@@H]3c2cc(N(CC3CC3)CC(F)(F)F)ccc2Cl)ccc1-n1cnc(C)c1`, for which the IC50 stood at 6 nM. Next, `COc1cc(/C=C/C(=O)NCc2cccc(-c3ccccc3)c2)ccc1-n1cnc(C)c1`: 70 nM; `Cc1cn(-c2ccc(/C=C3\OC(C)(C)CN([C@H](c4cc(F)c(F)c(F)c4)[C@@H](C)O)C3=O)cc2F)cn1`: 41 nM; `COc1cc(Nc2c(OC)cnn(C(C)c3ccccc3)c2=O)ccc1-n1cnc(C)c1` (stereo not given): 3100 nM. For `CC(C)CCN(Cc1cc(-c2ccc(C(F)(F)F)cc2)cc(C(CC(C)C)C(=O)O)c1)Cc1ccc(F)c(F)c1` (stereo not given) the value was 65 nM; for `COc1cc(NC(=O)C(C)c2ccc3c(c2)[nH]c2ccc(Cl)cc23)ccc1-c1ccnc(C)c1` (stereo not given), 108 nM.

As to `CCC[C@H](C(=O)O)c1cc(OCc2ccccc2)cc(-c2ccc(C(F)(F)F)cc2)c1`, the IC50 amounted to 2500 nM.

As to `COc1cc(C(O)c2c(OC)cnn([C@@H](C)c3ccc(F)cc3)c2=O)ccc1-n1cnc(C)c1` (stereo not given in full), the IC50 turned out to be 7100 nM. As for `COc1cc(C2CC23CCCN(C(C)c2ccc(F)cc2)C3=O)ccc1-n1cnc(C)c1` (stereo not given), the 50% inhibitory concentration (IC50) was above 200 nM. For `Cc1cn(-c2ccc(Nc3ncc4c(n3)C(c3ccccc3)CCC4)cc2F)cn1` (stereo not given) the value was 130 nM; for `CC(C)c1cc(C(C)C)c(S(=O)(=O)n2c3ccccc3c3ccc(OCC(=O)O)cc32)c(C(C)C)c1`, 7500 nM; for `COc1cc(Nc2nc(Cc3ccc(Cl)cc3)c(CO)s2)ccc1-n1cnc(C)c1`, 340 nM. For `CCCC1CCCCN1c1cc(-c2ccc(C(F)(F)F)cc2)cc(C(CC(C)C)C(=O)O)c1` (stereo not given) the value was 430 nM. As for `COc1cc(/C=C2\CCCN([C@H](c3cc(F)c(F)c(F)c3)[C@@H](C)O)C2=O)ccc1-n1cnc(C)n1`, the IC50 came out at 60 nM.

For the compound `COc1cc(C)c(Cc2nc(-c3ccc(-n4cnc(C)c4)c(OC)n3)n[nH]2)cc1C(C)C`, the IC50 worked out at 11 nM. For `COc1cc(Nc2nc(C)cc(Oc3ccc(Cl)cc3)n2)ccc1-n1cnc(C)c1` the value was 380 nM; for `COc1cc(Nc2nc(C)c(Cc3cccc(Cl)c3)s2)ccc1-n1cnc(C)c1`, 210 nM. Next, `CC(C)CC(C(=O)O)c1cc(Cl)c(OCC2CC2)c(-c2ccc(C(F)(F)F)cc2)c1` (stereo not given): 69 nM.

Turning to `COc1cc(/C=C2\OC(C)(C)CN([C@H](c3cc(F)c(F)c(F)c3)[C@@H](C)O)C2=O)ccc1-n1cnc(C)c1`, the half-inhibitory concentration (IC50) stood at 5 nM.

Turning to `COc1cc(Nc2nc(OC(C)C)nc(N(C)c3ccc(Cl)cc3)n2)ccc1-n1cnc(C)c1`, the 50% inhibitory concentration (IC50) came to 120 nM. For `COc1cc(/C=C2\OC[C@@H]3CCC[C@H](c4ccc(F)cc4)N3C2=O)ccc1-n1cnc(C)c1` the value was 201 nM.

The record behind these values is ChEMBL document CHEMBL2150877, “γ-Secretase modulators as potential disease modifying anti-Alzheimer's drugs” (J Med Chem, 2011).
